Laboratory results: article PMC6268785, “Inhibition of PCAF Histone Acetyltransferase, Cytotoxicity and Cell Permeability of 2-Acylamino-1-(3- or 4-Carboxy-phenyl)benzamides” (Molecules, 2012)
Read-outs that look alike come from different tables or passages of the source.

Assays:
[1] = tested on: HT-29 (human colon cancer); assay: SRB cytotoxicity assay, HT-29; assay type: cell-based; settings: read-out: IC50 against HT-29
Experimental: (§1) The cell lines used were HSF (normal cell), HT-29 (human colon cancer), HCT-116 (human colon cancer), MDA-231 (human breast cancer), A549 (human lung cancer), Hep3B (human hepatoma cancer), HeLa (human cervical cancer) and Caki (human kidney cancer) supplied from the Korean Cell Line Bank (Daejeon, Korea). Cells were grown as monolayer cultures in the T-175 flasks (Costar), were subcultured twice a week at 37 °C in an atmosphere containing 5% CO2 in air and 100% relative humidity and maintained at low passage number (5 to 20). RPMI medium 1640, Dulbecco’s modified eagle medium (DMEM, Gibco), fetal bovin serum, (FBS, Gibco), penicillin-streptomycin (P-S, Gibco), phosphate buffered saline pH 7.4 (PBS, Gibco), 0.25% trypsin-EDTA (Gibco), 0.4% trypan blue, dimethyl sulfoxide (DMSO) (Sigma-Aldrich), trichloroacetic acid (Sigma-Aldrich) and sulforhodamine B (SRB) (Sigma-Aldrich) were used.
(§2) Adherent cells at the logarithmic growth phase were detached the by an addition of 3 mL of trypsin-EDTA (1:250) mixture, and they were incubated for 5 min at 37 °C. The cells were plated (200 μL per well) in 96 well flat-bottom microplates at densities of 3 × 10^3 cells per well. The cells were plated in sextuplicate (six replicate wells per cell density) and experiments were performed three times. Microplates were left for 6 h at 37 °C, so that the cells were able to attach to the bottom of the wells before the fixation protocol was carried out.
(§3) […]. Then, cold (4 °C) 50% TCA (50 μL) was added to the top of 200 μL culture medium in each well to produce a final TCA concentration of 10%. Microplates were left for 30 min at 4 °C, and subsequently, they were washed five times with deionized water. Microplates were then left to dry at room temperature for at least 24 h.
(§4) The SRB assay was carried out as previously described. In brief, 0.4% (w/v) sulforhodamine B (70 μL) in acetic acid solution were added to each well and left at room temperature for 20 min. SRB was removed and the plates washed five times with 1% acetic acid before air drying. Bound SRB was solubilized with 10 mM unbuffered Tris-base solution (200 μL) and the plates were left on a plate shaker for at least 10 min. Absorbance was read in a 96-well plate reader at 492 nm subtracting the background measurement at 620 nm. The test optical density (OD) value was defined as the absorbance of each individual well, minus the blank value.

[2] = target: T1, PCAF HAT (Homo sapiens, UniProt Q92831); assay: PCAF HAT inhibition assay (fluorescent, CPM detection of CoA-SH); assay type: biochemical; settings: for inhibition at 100 µM: read-out: PCAF HAT inhibition (%)
T1 construct: purchased Cayman Co., Ann Arbor, MI, USA
T1 sequence (Q92831 492-658 limits assumed): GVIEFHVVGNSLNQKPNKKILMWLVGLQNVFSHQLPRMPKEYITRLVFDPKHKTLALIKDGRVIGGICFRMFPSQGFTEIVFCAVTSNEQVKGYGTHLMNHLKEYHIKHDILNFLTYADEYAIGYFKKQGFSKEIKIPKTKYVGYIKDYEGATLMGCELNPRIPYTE
Experimental: The structural analogues were derived from anthranilic acid by introducing the acyl chain at the 2- position, and 3- or 4-carboxyaniline at the 1-position, respectively. The ability of new compounds 8–19 to inhibit HAT activity was analyzed in vitro using PCAF HAT enzymatic kit (Cayman Co., Ann Arbor, MI, USA). Anacardic acid, a commercially available HAT inhibitor, was used as a positive control.
The PCAF HAT inhibition studies were performed using a fluorescent assay as described previously. The enzyme activity was measured by the detection of CoA-SH by the fluorescent dye 7-(diethylamino)-3-(4'-maleimidylphenyl)-4-methylcoumarin (CPM). In brief, assay buffer (15 μL), acetyl CoA (5 μL) and diluted PCAF (10 μL) were added to all the wells. Dimethylsulfoxide (DMSO, 5 μL) was added to 100% initial activity wells and the background wells, and inhibitor (100 μM, 5 μL) was added to the inhibitor wells. PCAF HAT peptide (20 μL) was added to all the wells except the background wells. The wells were incubated on a shaker for 5 minutes at room temperature and HAT stop reagent (50 μL) was added to all the wells including the background wells. HAT peptide (20 μL) was added to the background wells only. HAT developer (100 μL) was added to all the wells including the background wells and incubated for 20 minutes at room temperature. Then, read the plate using an excitation wavelength of 360–390 nm and an emission wavelength of 450–470 nm. Subtract the fluorescence of the background wells from the fluorescence of the 100% initial activity and the inhibitor wells. The percent inhibition for each sample was determined as follows: [drawing 2]

[3] = tested on: Hep3B (human hepatoma cancer); assay: SRB cytotoxicity assay, Hep3B; assay type: cell-based; settings: mean ± standard error, read-out: IC50 against Hep3B
Experimental: as §1, §2, §3, §4

[4] = tested on: HSF (normal cell); assay: SRB cytotoxicity assay, HSF normal cell line; assay type: cell-based; settings: read-out: IC50 against HSF
Experimental: as §1, §2, §3, §4

[5] = tested on: Caki (human kidney cancer); assay: SRB cytotoxicity assay, Caki; assay type: cell-based; settings: mean ± standard error, read-out: IC50 against Caki
Experimental: as §1, §2, §3, §4

[6] = tested on: HCT-116 (human colon cancer); assay: SRB cytotoxicity assay, HCT-116; assay type: cell-based; settings: read-out: IC50 against HCT-116
Experimental: as §1, §2, §3, §4

[7] = tested on: MDA-231 (human breast cancer); assay: SRB cytotoxicity assay, MDA-231; assay type: cell-based; settings: read-out: IC50 against MDA-231
Experimental: as §1, §2, §3, §4

[8] = tested on: A549 (human lung cancer); assay: SRB cytotoxicity assay, A549; assay type: cell-based; settings: read-out: IC50 against A549
Experimental: as §1, §2, §3, §4

[9] = tested on: HeLa (human cervical cancer); assay: SRB cytotoxicity assay, HeLa; assay type: cell-based; settings: mean ± standard error, read-out: IC50 against HeLa
Experimental: as §1, §2, §3, §4

[10] = tested on: seven human cancer cell lines; assay: SRB cytotoxicity assay, panel of seven cancer cell lines (summary in words); assay type: cell-based
Experimental: as §1
Adherent cells at the logarithmic growth phase were detached the by an addition of 3 mL of trypsin-EDTA (1:250) mixture, and they were incubated for 5 min at 37 °C. […]
The SRB assay was carried out as previously described. […] Absorbance was read in a 96-well plate reader at 492 nm subtracting the background measurement at 620 nm. The test optical density (OD) value was defined as the absorbance of each individual well, minus the blank value.

[11] = tested on: Caco-2 cell monolayers; assay: Caco-2 cell permeability assay; assay type: in vitro ADME, human; settings: Caco-2, apical to basolateral, initial concentration 50 μM; mean ± SD
[12] = Homo sapiens, HT-29, mean ± standard error
[13] = Homo sapiens, HCT-116, mean ± standard error
[14] = Homo sapiens, MDA-MB-231, mean ± standard error
[15] = Homo sapiens, A549, mean ± standard error

Molecule	IC50 [4] [µM]	IC50 ([1]; mean ± standard error) [µM]	PCAF HAT inhibition (%) ([2]; 100 μM compound)	IC50 [3] [µM]	IC50 [9] [µM]	IC50 [5] [µM]	IC50 ([6]; mean ± standard error) [µM]	IC50 ([7]; mean ± standard error) [µM]	IC50 ([8]; mean ± standard error) [µM]	other results
CCCCCCCCCCCCCCCc1cccc(O)c1C(=O)O [AA, Anacardic acid, reference compound]	> 100									IC50 [1, 12]: 60.4 ± 6.36 µM; inhibition at 100 µM ([2]; 100 μM compound): 68%; IC50 ([3]; Homo sapiens, Hep3B): > 100 µM; IC50 ([5]; Homo sapiens): > 100 µM; IC50 [6, 13]: 96.3 ± 4.33 µM; IC50 [7, 14]: 44.3 ± 4.2 µM; IC50 [8, 15]: 70.76 ± 0.41 µM
2-Dodecanoylamino-1-(3-carboxyphenyl)benzamide [Compound 15]	> 100	> 100	42	> 100	> 100	> 100	> 100	> 100	> 100	
2-Decanoylamino-1-(4-carboxyphenyl)benzamide [Compound 12]	> 100	> 100	55	> 100	> 100	63.8 ± 2.39	> 100	> 100	> 100	
2-Dodecanoylamino-1-(4-carboxyphenyl)benzamide [Compound 14]	> 100	> 100	46	> 100	> 100	> 100	53.3 ± 2.05	> 100	> 100	
Nc1ccccc1C(=O)O [A, Anthranilic acid, reference compound]	> 100									cytotoxic activity against cancer cell lines (in words) [10]: inactive against most of cancer cell lines; IC50 [1, 12]: > 100 µM; inhibition at 100 µM [2]: 34%; IC50 ([3]; Homo sapiens, Hep3B): > 100 µM; IC50 ([9]; Homo sapiens, HeLa): > 100 µM; IC50 ([5]; Homo sapiens): > 100 µM; IC50 [6, 13]: > 100 µM; IC50 [7, 14]: > 100 µM; IC50 [8, 15]: > 100 µM
2-Tetradecanoylamino-1-(3-carboxyphenyl)benzamide [Compound 17]	> 100	54.9 ± 3.49	79	57.52 ± 0.26	55 ± 3.14	55.9 ± 5.09	29.2 ± 3.86	62.43 ± 0.58	32.1 ± 1.36	Measured Papp [11]: 71.48 ± 4.67 ×10^−6 cm/s
2-Hexadecanoylamino-1-(3-carboxyphenyl)benzamide [Compound 19]	> 100	44.8 ± 2.98		43.8 ± 5.91	36.9 ± 3.76	82.6 ± 5.89	40.3 ± 4.3	> 100	40.5 ± 3.59	PCAF HAT inhibition (%) ([2]; 100 μM compound, 100 µM): 61%
2-Hexanoylamino-1-(4-carboxyphenyl)benzamide [Compound 8]	> 100	> 100	67	> 100		> 100	> 100	> 100	> 100	
2-Tetradecanoylamino-1-(4-carboxyphenyl)benzamide [Compound 16]	> 100	54.8 ± 1.05	72	73.3 ± 9.61	56.5 ± 0.87	63.08 ± 0.21	43.9 ± 2.39	79.1 ± 3.27	46.2 ± 0.83	Measured Papp [11]: 68.21 ± 3.56 ×10^−6 cm/s
2-Hexanoylamino-1-(3-carboxyphenyl)benzamide [Compound 9]	> 100	> 100		> 100		> 100	> 100	> 100	> 100	
2-Decanoylamino-1-(3-carboxyphenyl)benzamide [Compound 13]	> 100	> 100	45	> 100	> 100	> 100	> 100	> 100	> 100	
2-Octanoylamino-1-(4-carboxyphenyl)benzamide [Compound 10]	> 100	> 100	66	> 100	> 100	69.5 ± 7.16	> 100	51.8 ± 0.68	> 100	
2-Octanoylamino-1-(3-carboxyphenyl)benzamide [Compound 11]	> 100	> 100		> 100	> 100	> 100	> 100	> 100	> 100	PCAF HAT inhibition (%) ([2]; 100 μM compound, 100 µM): 52%
